Data on 4 compounds can be found in ChEMBL document CHEMBL1130994, “3-trifluoromethylcarbacephems: synthesis of broad spectrum antibacterial compounds” (1998).

Test [1] deals with Enterococcus faecalis. The test can be described thus: Compound was evaluated for inhibitory activity against 2041 Enterococcus faecalis Gp.D streptococcus penicillin susceptible. Type of test: functional.
The test system of test [2] is Escherichia coli. The experiment in a line: Compound was evaluated for inhibitory activity against EC14 Escherichia coli sensitive. Type of test: functional.
Test [3] deals with Klebsiella pneumoniae. The experiment in a line: Compound was evaluated for inhibitory activity against X26 Klebsiella pneumoniae. Type of test: functional.
Test [4] relates to Streptococcus pneumoniae. The test can be described thus: Compound was evaluated for inhibitory activity against Park S Streptococcus pneumoniae. Type of test: functional.
Test [5] has as its system Providencia stuartii. The experiment in a line: Compound was evaluated for inhibitory activity against PR33 Providencia stuartii. Type of test: functional.
The test system of test [6] is Klebsiella aerogenes. The test can be described thus: Compound was evaluated for inhibitory activity against EB17 Enterobacter aerogenes. Format: functional.
Test [7] deals with Acinetobacter. The test can be described thus: Compound was evaluated for inhibitory activity against AC12 Acinetobacter. Type of test: functional.
Test [8] concerns Serratia. The test can be described thus: Compound was evaluated for inhibitory activity against X99 Serratia. Format: functional.
Test [9] deals with Citrobacter. The experiment in a line: Compound was evaluated for inhibitory activity against CF17 Citrobacter. Format: functional.
Test [10] concerns Providencia rettgeri. The experiment in a line: Compound was evaluated for inhibitory activity against C24 Providencia rettgeri. Type of test: functional.
The test system of test [11] is Haemophilus influenzae. The experiment in a line: Compound was evaluated for inhibitory activity against 76 Haemophilus influenzae beta-lactamase. Format: functional.
Test [12] relates to Haemophilus influenzae. The test can be described thus: Compound was evaluated for inhibitory activity against C.L Haemophilus influenzae ampicillin sensitive. Type of test: functional.
Test [13] relates to Enterobacter cloacae. The experiment in a line: Compound was evaluated for inhibitory activity against 265a Enterobacter cloacae beta-lactamase. Type of test: functional.
Test [14] deals with Staphylococcus aureus. The test can be described thus: Compound was evaluated for inhibitory activity against X400S Staphylococcus aureus methicillin resistant and macrolide resistant. Format: functional.
Test [15] concerns Staphylococcus aureus. The test can be described thus: Compound was evaluated for inhibitory activity against X1.1 Staphylococcus aureus penicillin sensitive. Type of test: functional.
Test [16] concerns Klebsiella aerogenes. The experiment in a line: Compound was evaluated for inhibitory activity against C32 Enterobacter aerogenes. Format: functional.
Test [17] has as its system Escherichia coli. The experiment in a line: Compound was evaluated for inhibitory activity against TEM Escherichia coli beta-lactamase. Format: functional.
Test [18] concerns Morganella morganii. The test can be described thus: Compound was evaluated for inhibitory activity against PR15 Morganella morganii. Type of test: functional.
The subject of test [19] is Staphylococcus aureus. The experiment in a line: Compound was evaluated for inhibitory activity against S13E Staphylococcus aureus methicillin resistant penicillin resistant macrolide sensitive (PBP2a producer). Format: functional.
In test [20] the test system is Klebsiella pneumoniae. The test can be described thus: Compound was evaluated for inhibitory activity against KAE Klebsiella pneumoniae. Format: functional.
Test [21] relates to Salmonella. The experiment in a line: Compound was evaluated for inhibitory activity against X514 Salmonella. Type of test: functional.
In test [22] the test system is Enterobacter cloacae. The test can be described thus: Compound was evaluated for inhibitory activity against EB5 Enterobacter cloacae. Format: functional.
Test [23] deals with Serratia. The experiment in a line: Compound was evaluated for inhibitory activity against SE3 Serratia. Format: functional.
The subject of test [24] is Streptococcus pyogenes. The experiment in a line: Compound was evaluated for inhibitory activity against C203 Streptococcus pyogenes Gp.A. Format: functional.
The test system of test [25] is Streptococcus pyogenes. The test can be described thus: Compound was evaluated for inhibitory activity against C203 Streptococcus pyogenes Gp.A; No growth. Type of test: functional, organism-based.

Converted amounts (≈) assume the structure as drawn.

`N[C@@H](C(=O)N[C@@H]1C(=O)N2C(C(=O)O)=C(Cl)CS[C@H]12)c1ccccc1` [CEFACLOR ANHYDROUS]: the MIC in test [1] is 32 µM (≈ 11.8 µg/mL); in [2], 1 µM (≈ 0.368 µg/mL); in [3], 0.25 µM (≈ 0.092 µg/mL); in test [4], 0.5 µM (≈ 0.184 µg/mL); in test [5] it was 64 µM (≈ 23.5 µg/mL); in [6], 8 µM (≈ 2.94 µg/mL). Moreover, the MIC was found to be 128 µM (≈ 47.1 µg/mL) in [7]; 64 µM (≈ 23.5 µg/mL) in test [8]; 128 µM (≈ 47.1 µg/mL) in [9]; 64 µM (≈ 23.5 µg/mL) in test [10]; 1 µM (≈ 0.368 µg/mL) in test [11]; 2 µM (≈ 0.736 µg/mL) in test [12]. In addition, the MIC in test [13] is 128 µM (≈ 47.1 µg/mL); in [14] it was 128 µM (≈ 47.1 µg/mL); in test [15], 0.5 µM (≈ 0.184 µg/mL); in test [16] it was 32 µM (≈ 11.8 µg/mL); in test [17], 2 µM (≈ 0.736 µg/mL); in [18] it was 128 µM (≈ 47.1 µg/mL). Moreover, the MIC in test [19] amounted to 128 µM (≈ 47.1 µg/mL); in [20] it was 128 µM (≈ 47.1 µg/mL); in test [21] it was 0.5 µM (≈ 0.184 µg/mL); in test [22] it was 32 µM (≈ 11.8 µg/mL); in test [23] it was 128 µM (≈ 47.1 µg/mL); in test [24] it was 0.06 µM (≈ 0.0221 µg/mL).
Consider `N[C@@H](C(=O)N[C@@H]1C(=O)N2C(C(=O)O)=C(C(F)(F)F)CC[C@H]12)c1cccc(C(F)(F)F)c1`, for which the MIC in test [1] came out at 16 µM (≈ 7.22 µg/mL); in test [2], 8 µM (≈ 3.61 µg/mL); in test [3], 1 µM (≈ 0.451 µg/mL); in test [4] it was 0.13 µM (≈ 0.0587 µg/mL); in [5] it was 32 µM (≈ 14.4 µg/mL); in test [6], 128 µM (≈ 57.8 µg/mL). The MIC is 32 µM (≈ 14.4 µg/mL) in [7]; 128 µM (≈ 57.8 µg/mL) in test [8]; 128 µM (≈ 57.8 µg/mL) in test [9]; 64 µM (≈ 28.9 µg/mL) in [10]; 1 µM (≈ 0.451 µg/mL) in test [11]; 1 µM (≈ 0.451 µg/mL) in [12]. The MIC came to 128 µM (≈ 57.8 µg/mL) in test [13]; 16 µM (≈ 7.22 µg/mL) in test [14]; 2 µM (≈ 0.903 µg/mL) in [15]; 128 µM (≈ 57.8 µg/mL) in test [16]; 16 µM (≈ 7.22 µg/mL) in test [17]; 32 µM (≈ 14.4 µg/mL) in [18]. For the same compound, the MIC in test [19] is 16 µM (≈ 7.22 µg/mL); in test [20], 64 µM (≈ 28.9 µg/mL); in test [25] it was “No growth”; in test [21], 32 µM (≈ 14.4 µg/mL); in test [22] it was 4 µM (≈ 1.81 µg/mL); in [23], 128 µM (≈ 57.8 µg/mL).
Turning to `N[C@@H](C(=O)N[C@@H]1C(=O)N2C(C(=O)O)=C(C(F)(F)F)CC[C@H]12)c1ccccc1`, the MIC amounted to 16 µM (≈ 6.13 µg/mL) in [1]; 0.5 µM (≈ 0.192 µg/mL) in [2]; 0.25 µM (≈ 0.0958 µg/mL) in test [3]; 0.25 µM (≈ 0.0958 µg/mL) in test [4]; 4 µM (≈ 1.53 µg/mL) in test [5]; 2 µM (≈ 0.767 µg/mL) in test [6]. The MIC in [7] was determined as 32 µM (≈ 12.3 µg/mL); in test [8], 8 µM (≈ 3.07 µg/mL); in [9], 4 µM (≈ 1.53 µg/mL); in test [10], 8 µM (≈ 3.07 µg/mL); in [11] it was 1 µM (≈ 0.383 µg/mL); in [12], 1 µM (≈ 0.383 µg/mL). The MIC in [13] turned out to be 8 µM (≈ 3.07 µg/mL); in test [14], 32 µM (≈ 12.3 µg/mL); in test [15], 0.5 µM (≈ 0.192 µg/mL); in [16] it was 4 µM (≈ 1.53 µg/mL); in test [17] it was 1 µM (≈ 0.383 µg/mL); in [18], 32 µM (≈ 12.3 µg/mL). Also, the MIC in [19] is 8 µM (≈ 3.07 µg/mL); in [20], 4 µM (≈ 1.53 µg/mL); in test [21], 0.25 µM (≈ 0.0958 µg/mL); in test [22] it was 4 µM (≈ 1.53 µg/mL); in test [23] it was 16 µM (≈ 6.13 µg/mL); in test [24] it was 0.03 µM (≈ 0.0115 µg/mL).
Regarding `CS(=O)(=O)Nc1cccc([C@@H](N)C(=O)N[C@@H]2C(=O)N3C(C(=O)O)=C(C(F)(F)F)CC[C@H]23)c1`, the MIC in test [1] worked out at 16 µM (≈ 7.62 µg/mL); in test [2], 0.5 µM (≈ 0.238 µg/mL); in test [3], 0.5 µM (≈ 0.238 µg/mL); in test [4], 0.13 µM (≈ 0.0619 µg/mL); in [5] it was 8 µM (≈ 3.81 µg/mL); in [6], 4 µM (≈ 1.91 µg/mL). For the same compound, the MIC in test [7] stood at 64 µM (≈ 30.5 µg/mL); in test [8], 16 µM (≈ 7.62 µg/mL); in test [9], 16 µM (≈ 7.62 µg/mL); in test [10], 16 µM (≈ 7.62 µg/mL); in [11] it was 2 µM (≈ 0.953 µg/mL); in test [12], 2 µM (≈ 0.953 µg/mL). Also, the MIC in test [13] is 32 µM (≈ 15.2 µg/mL); in test [14], 16 µM (≈ 7.62 µg/mL); in test [15], 2 µM (≈ 0.953 µg/mL); in test [16], 2 µM (≈ 0.953 µg/mL); in [17], 1 µM (≈ 0.476 µg/mL); in [18] it was 8 µM (≈ 3.81 µg/mL). For the same compound, the MIC in test [19] came to 16 µM (≈ 7.62 µg/mL); in test [20] it was 16 µM (≈ 7.62 µg/mL); in test [21], 2 µM (≈ 0.953 µg/mL); in test [22], 16 µM (≈ 7.62 µg/mL); in [23] it was 32 µM (≈ 15.2 µg/mL); in test [24] it was 0.06 µM (≈ 0.0286 µg/mL).
